The structures appear in SMILES notation.

Chain of HGFR (c-Met) (P08581 974-1390): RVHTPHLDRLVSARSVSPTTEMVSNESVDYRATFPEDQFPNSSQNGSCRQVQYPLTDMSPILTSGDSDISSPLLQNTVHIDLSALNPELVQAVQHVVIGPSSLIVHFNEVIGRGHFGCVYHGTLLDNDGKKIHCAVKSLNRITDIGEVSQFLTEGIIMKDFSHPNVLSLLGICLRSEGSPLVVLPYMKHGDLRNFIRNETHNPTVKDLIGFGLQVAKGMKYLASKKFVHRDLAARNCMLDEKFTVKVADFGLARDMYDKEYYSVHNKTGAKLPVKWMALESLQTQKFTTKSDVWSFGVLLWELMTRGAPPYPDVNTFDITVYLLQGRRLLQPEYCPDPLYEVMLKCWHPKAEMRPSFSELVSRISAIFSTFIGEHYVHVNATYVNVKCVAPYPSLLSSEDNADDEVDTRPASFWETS

One assay concerns the target HGFR (c-Met) (Homo sapiens, UniProt P08581). The assay can be described thus: HGFR Continuous-Coupled Spectrophotometric Assay. The format is biochemical. As to conditions: HGFR enzyme 50 nM, Met-2 peptide substrate, 37° C. A digest of the protocol:
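Human HGFR (50 nM final) phosphorylates the Met-2 activation-loop peptide, with ADP formation coupled through PK/LDH to NADH consumption, read as the A340 decrease over 10 min at 37 °C. Buffer was HEPES pH 7.5 with MgCl2, DTT, PEP and ATP.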
In general, Ki refers to the dissociation constant of the complex between target and ligand, obtained from inhibition or displacement. The molecule `CC(Oc1cc(-c2ccc(NCCN3CCCC3)nc2)cnc1N)c1c(Cl)ccc(F)c1Cl` (stereo not drawn) [Example 75, 5-[1-(2,6-Dichloro-3-fluoro-phenyl)-ethoxy]-N6′-(2-pyrrolidin-1-yl-ethyl)-[3,3′]bipyridinyl-6,6′-diamine] gave a Ki of 0.028 µM.
Same read-out and setting: in the case of `CC(Oc1cc(-c2ccc(NC3CCNCC3)nc2)cnc1N)c1c(Cl)ccc(F)c1Cl` (stereo not drawn) [Example 76, 5-[1-(2,6-Dichloro-3-fluoro-phenyl)-ethoxy]-N6′-piperidin-4-yl-[3,3′]bipyridinyl-6,6′-diamine] it was 0.022 µM.
On to `CC(Oc1cc(-c2cn(C3CCNCC3)cn2)cnc1N)c1c(Cl)ccc(F)c1Cl` (stereo not drawn) [Example 77, 3-[1-(2,6-Dichloro-3-fluoro-phenyl)-ethoxy]-5-(1-piperidin-4-yl-1H-imidazol-4-yl)-pyridin-2-ylamine], for which the inhibition constant (Ki) was found to be 0.038 µM.
Still for that read-out and setting: then `CCOc1ccc(Cl)c(C(C)Oc2cc(-c3ccc(C(=O)N4CCNCC4)cc3)cnc2N)c1Cl` (stereo not drawn) [Example 78, (4-{6-Amino-5-[1-(2,6-dichloro-3-ethoxy-phenyl)-ethoxy]-pyridin-3-yl}-phenyl)-piperazin-1-yl-methanone], with 0.057 µM; and `CC(Oc1cc(-c2ccc(C(=O)N3CCNCC3)cc2)cnc1N)c1c(Cl)ccc(O)c1Cl` (stereo not drawn) [Example 79, (4-{6-Amino-5-[1-(2,6-dichloro-3-hydroxy-phenyl)-ethoxy]-pyridin-3-yl}-phenyl)-piperazin-1-yl-methanone], with 0.071 µM.
On the same count and under the same terms, then `COc1ccc(Cl)c(C(C)Oc2cc(-c3ccc(C(=O)N4CCNCC4)cc3)cnc2N)c1Cl` (stereo not drawn) [Example 80, (4-{6-Amino-5-[1-(2,6-dichloro-3-methoxy-phenyl)-ethoxy]-pyridin-3-yl}-phenyl)-piperazin-1-yl-methanone], with 0.006 µM; and `CC(Oc1cc(C(N)=O)cnc1N)c1c(Cl)ccc(F)c1Cl` (stereo not drawn) [Example 81, 6-Amino-5-[1-(2,6-dichloro-3-fluoro-phenyl)-ethoxy]-nicotinamide], with 1 µM; and `Cc1ccc(Cl)c(C(C)Oc2cc(-c3ccc(C(=O)N4CCC(N5CCCC5)CC4)cc3)cnc2N)c1F` (stereo not drawn) [Example 82, (4-{6-Amino-5-[1-(6-chloro-2-fluoro-3-methyl-phenyl)-ethoxy]-pyridin-3-yl}-phenyl)-(4-pyrrolidin-1-yl-piperidin-1-yl)-methanone], with 0.41 µM.
`CC(Oc1cc(-c2ccc(C(=O)N3CCC(N4CCCC4)CC3)cc2)cnc1N)c1cccc(C(=O)O)c1` (stereo not drawn) [Example 84, 3-(1-{2-Amino-5-[4-(4-pyrrolidin-1-yl-piperidine-1-carbonyl)-phenyl]-pyridin-3-yloxy}-ethyl)-benzoic acid] returned a Ki of 5.48 µM.
For `Cc1cn(-c2cnc(N)c(OC(C)c3c(Cl)ccc(F)c3Cl)c2)cn1` (stereo not drawn) [Example 85, 3-[1-(2,6-Dichloro-3-fluoro-phenyl)-ethoxy]-5-(4-methyl-imidazol-1-yl)-pyridin-2-ylamine], the Ki turned out to be 0.78 µM.
The same measure, in the same setting: in the case of `COC(=O)c1cn(-c2cnc(N)c(OC(C)c3c(Cl)ccc(F)c3Cl)c2)cn1` (stereo not drawn) [Example 86, 1-{6-Amino-5-[1-(2,6-dichloro-3-fluoro-phenyl)-ethoxy]-pyridin-3-yl}-imidazole-4-carboxylic acid methyl ester] it was 1.81 µM.
On the same count and under the same terms, then `CC(Oc1cc(N2CCCC2=O)cnc1N)c1c(Cl)ccc(F)c1Cl` (stereo not drawn) [Example 90, N-{6-Amino-5-[1-(2,6-dichloro-3-fluoro-phenyl)-ethoxy]-pyridin-3-yl}-pyrrolidin-2-one], with 0.91 µM.
Still for that read-out and setting: in the case of `COc1ccc(C(=O)Nc2cnc(N)c(OC(C)c3c(Cl)ccc(F)c3Cl)c2)cc1` (stereo not drawn) [Example 91, N-{6-Amino-5-[1-(2,6-dichloro-3-fluoro-phenyl)-ethoxy]-pyridin-3-yl}4-methoxy-benzamide] it was 1.32 µM; in that of `COc1cc(C(=O)Nc2cnc(N)c(OC(C)c3c(Cl)ccc(F)c3Cl)c2)ccn1` (stereo not drawn) [Example 92, N-{6-Amino-5-[1-(2,6-dichloro-3-fluoro-phenyl)-ethoxy]-pyridin-3-yl}-2-methoxy-isonicotinamide], 1.69 µM.
`CC(Oc1cc(NC(=O)c2cnccn2)cnc1N)c1c(Cl)ccc(F)c1Cl` (stereo not drawn) [Example 93, Pyrazine-2-carboxylic acid {6-amino-5-[1-(2,6-dichloro-3-fluoro-phenyl)-ethoxy]-pyridin-3-yl}-amide]: the Ki turned out to be 1.47 µM.
On to `CC(Oc1nc(-c2ccccc2NS(C)(=O)=O)cnc1N)c1c(Cl)ccc(F)c1Cl` (stereo not drawn) [Example 94, N-(2-{5-Amino-6-[1-(2,6-dichloro-3-fluoro-phenyl)-ethoxy]-pyrazin-2-yl}-phenyl)-methanesulfonamide], for which the Ki was 3.79 µM.
`Cc1cc2cccc(-c3cnc(N)c(OC(C)c4c(Cl)ccc(F)c4Cl)n3)c2[nH]1` (stereo not drawn) [Example 95, 3-[1-(2,6-Dichloro-3-fluoro-phenyl)-ethoxy]-5-(2-methyl-1H-indol-7-yl)-pyrazin-2-ylamine] showed a Ki of 4.2 µM.
Consider `CC(Oc1cc(-c2ccc(C(=O)N3CCC(N4CCCC4)CC3)cc2)cnc1N)c1c(Cl)ccc(Cl)c1F` (stereo not drawn) [Example 96, (4-{6-Amino-5-[1-(3,6-dichloro-2-fluoro-phenyl)-ethoxy]-pyridin-3-yl}-phenyl)-(4-pyrrolidin-1-yl-piperidin-1-yl)-methanone], for which the affinity corresponds to a Ki of 0.217 µM.
The same measure, in the same setting: then `CC(Oc1cc(-c2ccc(C(=O)N3C[C@@H](C)N[C@@H](C)C3)cc2)cnc1N)c1c(Cl)ccc(Cl)c1F` (stereo partly drawn) [Example 97, (4-{6-Amino-5-[1-(3,6-dichloro-2-fluoro-phenyl)-ethoxy]-pyridin-3-yl}-phenyl)-(3,5-dimethyl-piperazin-1-yl)-methanone], with 0.324 µM; and `CC(Oc1cc(-c2ccc(CC(=O)N3CCN(C)CC3)cc2)cnc1N)c1c(Cl)ccc(F)c1Cl` (stereo not drawn) [Example 98, 2-(4-{6-Amino-5-[1-(2,6-dichloro-3-fluoro-phenyl)-ethoxy]-pyridin-3-yl}-phenyl)-1-(4-methyl-piperazin-1-yl)-ethanone], with 0.068 µM.
On the same count and under the same terms, then `CC(Oc1cc(-c2ccc(CC(=O)N3CCC(N)C3)cc2)cnc1N)c1c(Cl)ccc(F)c1Cl` (stereo not drawn) [Example 99, 2-(4-{6-Amino-5-[1-(2,6-dichloro-3-fluoro-phenyl)-ethoxy]-pyridin-3-yl}-phenyl)-1-(3-amino-pyrrolidin-1-yl)-ethanone], with 0.04 µM; and `CC(Oc1cc(-c2ccc(CC(=O)N3CCNCC3)cc2)cnc1N)c1c(Cl)ccc(F)c1Cl` (stereo not drawn) [Example 100, 2-(4-{6-Amino-5-[1-(2,6-dichloro-3-fluoro-phenyl)-ethoxy]-pyridin-3-yl}-phenyl)-1-piperazin-1-yl-ethanone], with 0.037 µM.
`CC(Oc1cc(-c2ccc(CC(=O)N3CC4C(N)C4C3)cc2)cnc1N)c1c(Cl)ccc(F)c1Cl` (stereo not drawn) [Example 101, 1-(6-Amino-3-aza-bicyclo[3.1.0]hex-3-yl)-2-(4-{6-amino-5-[1-(2,6-dichloro-3-fluoro-phenyl)-ethoxy]-pyridin-3-yl}-phenyl)-ethanone]: affinity was put at a Ki of 0.039 µM.
The same measure, in the same setting: in the case of `CC(Oc1cc(-c2ccc(NC(=O)C3CCNCC3)nc2)cnc1N)c1c(Cl)ccc(F)c1Cl` (stereo not drawn) [Example 102, Piperidine-4-carboxylic acid {6′-amino-5′-[1-(2,6-dichloro-3-fluoro-phenyl)-ethoxy]-[3,3′]bipyridinyl-6-yl}-amide] it was 0.164 µM; in that of `CC(Oc1cc(-c2ccc(F)c(C#N)c2)cnc1N)c1c(Cl)ccc(F)c1Cl` (stereo not drawn) [Example 103, 5-{6-amino-5-[1-(2,6-dichloro-3-fluorophenyl)ethoxy]pyridin-3-yl}-2-fluorobenzonitrile], 0.34 µM; in that of `C[C@@H](Oc1cc(-c2ccc(C(=O)N3CCNCC3)cc2)cnc1N)c1c(Cl)ccc(F)c1Cl` [Example 104, 3-[(1R)-1-(2,6-dichloro-3-fluorophenyl)ethoxy]-5-[4-(piperazin-1-ylcarbonyl)phenyl] pyridin-2-amine], 0.01 µM.
Turning to `CC(Oc1cc(-c2ccc(OCCN3CCCC3)cc2)cnc1N)c1c(Cl)ccc(F)c1Cl` (stereo not drawn) [Example 105, 3-[1-(2,6-dichloro-3-fluorophenyl)ethoxy]-5-[4-(2-pyrrolidin-1-ylethoxy)phenyl] pyridin-2-amine], the affinity, expressed as Ki, was 0.044 µM.
In turn, `COC(=O)c1n[nH]c2cc(-c3cnc(N)c(OC(C)c4c(Cl)ccc(F)c4Cl)c3)ccc12` (stereo not drawn) [Example 106, methyl 6-{6-amino-5-[1-(2,6-dichloro-3-fluorophenyl)ethoxy]pyridin-3-yl}-1H-indazole-3-carboxylate] gave a Ki of 0.044 µM.
`CC(Oc1cc(-c2cnc3[nH]c(=O)oc3c2)cnc1N)c1c(Cl)ccc(F)c1Cl` (stereo not drawn) [Example 107, 6-{6-amino-5-[1-(2,6-dichloro-3-fluorophenyl)ethoxy]pyridin-3-yl}(1,3]oxazolo[4,5-b]pyridin-2 (3H)-one] gave a Ki of 0.027 µM.
The same measure, in the same setting: in the case of `COc1cc(-c2cnc(N)c(OC(C)c3c(Cl)ccc(F)c3Cl)c2)ccc1OCCO` (stereo not drawn) [Example 108, 2-(4-{6-amino-5-[1-(2,6-dichloro-3-fluorophenyl)ethoxy]pyridin-3-yl}-2-methoxyphenoxy)ethanol] it was 0.022 µM; in that of `Cc1noc(C)c1-c1cnc(N)c(OC(C)c2c(Cl)ccc(F)c2Cl)c1` (stereo not drawn) [Example 109, 3-[1-(2,6-dichloro-3-fluoropheny)ethoxy]-5-(3,5-dimethylisoxazol-4-yl)pyridin-2-amine], 0.86 µM.

Staying with this assay, now noted: compound at 1 μM.
Broadly, the inhibition is the drop in the measured response relative to a control, in per cent. Low values mean a weak effect, high ones a strong effect. `CCC(Oc1cc(-c2ccc(C(=O)N3CCC(N4CCCC4)CC3)cc2)cnc1N)c1cc(F)c(F)cc1F` (stereo not drawn) [Example 83, (4-{6-Amino-5-[1-(2,4,5-trifluoro-phenyl)-propoxy]-pyridin-3-yl}-phenyl)-(4-pyrrolidin-1-yl-piperidin-1-yl)-methanone]: the inhibition at 1 µM was 11%.
On the same count and under the same terms, then `CC(Oc1cc(-c2ccc(C(=O)N3CCC(N4CCCC4)CC3)cc2)cnc1N)c1cccc(C(=O)NCCc2cccc(O)c2)c1` (stereo not drawn) [Example 87, 3-(1-{2-Amino-5-[4-(4-pyrrolidin-1-yl-piperidine-1-carbonyl)-phenyl]-pyridin-3-yloxy}-ethyl)-N-[2-(3-hydroxy-phenyl)-ethyl]-benzamide], with 20%.
